How the values were obtained:
[1] = tested on: total IgA serum levels; experiment: Repeat and extension of atacicept and MMF combination experiment, total IgA by ELISA; assay type: in vivo, mice; settings: for Numeric mean IgA: dosing until day 91
Experimental: (§1) Using similar procedures to those described in Example 3 and dosing until day 91, the results of Example 3 were replicated and extended in time to days 35, 91, 126, and 182.
(§2) Group 1 received both the vehicle for ATACICEPT and the vehicle for CellCept at the same treatment frequency as the treated groups. Group 2 was treated with only ATACICEPT
(§3) Group 3 received only CellCept. Group 4 received CellCept oral gavage followed by ATACICEPT s.c. injection within a period of approximately 30 minutes. The day of the first treatment was considered day 1 of the study. Throughout the study period clinical observations, hematological and blood chemistry tests, toxicokinetics and additional investigations were carried out.
(§4) Additional satellite groups of animals were used for total immunoglobulin determinations and antibody determination. They were treated and weighed according to the same procedures as the main study.
(§5) Blood samples were collected from 3 animals/sex/group (in progressive numerical order) for the determination of IgG, IgM and IgA serum levels at the following times:
(§6) from animals of groups 9, 10, 11 and 12:
(§7) • on day 34 of the 5-week treatment period • on day 90 of the 13-week treatment period • on day 34 of the 5-week recovery period • on day 90 of the 13-week recovery period
(§8) The blood (at least 0.8-1 mL) was collected at sacrifice from the abdominal aorta of mice after they have been completely anaesthetized with diethyl ether.
(§9) Samples were collected in tubes without any anticoagulant and allowed to clot for about 1 hour at room temperature. The clot were spun down by centrifugation at 3000 rpm at +4° C. for 15 minutes. Blood cells were discarded and the serum banked in 100 μL aliquots (four aliquots for every single analysis) and stored at −80° C. until analysis. Total IgG, IgM and IgA levels were determined by validated ELISA methods.

[2] = tested on: total serum IgM; experiment: 28-day atacicept and MMF co-administration study, total serum IgM by ELISA; assay type: in vivo, CD-1 mice
Experimental: (§10) Atacicept and MMF (CellCept) co-administration was tested in a 28-day study in CD-1 mice. One hundred fifty animals were distributed among four treatment groups. Group 1 received vehicle control articles used for both atacicept and MMF using the same route and regimen used for each test article. Group 2 received MMF (351 mg/kg) via daily oral gavage. Group 3 received atacicept (20 mg/kg) three times weekly via subcutaneous injection. Group 4 received atacicept (20 mg/kg, 3×/week, SC) and MMF (351 mg/kg, daily, oral), typically administered within 30 minutes of each other. […]
(§11) Animals were sacrificed at baseline (Day-1) and Days 14, 28 (last day of treatment), 42, 56, and 112. […] Body weights were measured and recorded on Day-1 of the study and weekly thereafter, and prior to sacrifice. […] Total serum IgG, IgM, and IgA were measured using a […] necropsies were conducted on sacrificed animals for evaluation of organ weight changes, gross pathology, and histopathology.
(§12) Total IgM levels were evaluated using a mouse IgM ELISA quantitation kit (Catalog #E90-101, Bethyl Laboratories, Montgomery, Tex.), combined with the ELISA Starter Accessory Package (Catalog #E101, Bethyl Laboratories, Montgomery, Tex.). […] The color reaction was stopped with addition of 2 M H2SO4, and the resulting absorbance (OD-450) was measured on a Spectramax 190 microplate reader. […]

[3] = tested on: total serum IgA; experiment: 28-day atacicept and MMF co-administration study, total serum IgA by ELISA; assay type: in vivo, CD-1 mice
Experimental: as §10, §11
as §12, with “IgA” for “IgM”, “#E90-103,” for “#E90-101,”

[4] = tested on: total serum IgG; experiment: 28-day atacicept and MMF co-administration study, total serum IgG by ELISA; assay type: in vivo, CD-1 mice
Experimental: as §10, §11
as §12, with “IgG” for “IgM”, “#E90-131,” for “#E90-101,”

[5] = tested on: total IgG serum levels; experiment: Repeat and extension of atacicept and MMF combination experiment, total IgG by ELISA; assay type: in vivo, mice; settings: for Numeric mean IgG: dosing until day 91, atacicept 20 mg/kg s.c. 3/week, MMF 350 mg/kg/day oral
Experimental: as §1, §2, §3, §4, §5, §6, §7, §8, §9

[6] = tested on: total IgM serum levels; experiment: Repeat and extension of atacicept and MMF combination experiment, total IgM by ELISA; assay type: in vivo, mice; settings: for Numeric mean IgM: dosing until day 91
Experimental: as §1, §2, §3, §4, §5, §6, §7, §8, §9

[7] = Day 28 (last day of treatment), MMF 351 mg/kg daily oral, atacicept 20 mg/kg 3x/week SC
[8] = Day 28, positive = reduction versus vehicle

COc1c(C)c2c(c(O)c1C/C=C(\C)CCC(=O)OCCN1CCOCC1)C(=O)OC2 [MMF, mycophenolate mofetil]
Difference from Vehicle, mean IgA (vehicle minus treatment) ([1]; Sample Day 91): -840.19 µg/mL | Numeric mean IgA ([1]; Sample Day 91, atacicept 20 mg/kg s.c. 3/week, MMF 350 mg/kg/day oral): 1764.55 µg/mL | Difference from Vehicle, mean IgA (vehicle minus treatment) ([1]; Sample Day 126): -353.57 µg/mL | Numeric mean IgA ([1]; Sample Day 126 (recovery period)): 1467.05 µg/mL | Numeric mean IgM [2, 7]: 317 µg/mL | Difference from Vehicle, mean IgM (vehicle minus treatment) [2, 8]: -79 µg/mL | Numeric mean IgA [3, 7]: 506 µg/mL | Difference from Vehicle, mean IgA (vehicle minus treatment) [3, 8]: -8 µg/mL | Numeric mean IgG [4, 7]: 185 µg/mL | Difference from Vehicle, mean IgG (vehicle minus treatment) [4, 8]: -6 µg/mL | Difference from Vehicle, mean IgG (vehicle minus treatment) ([5]; Sample Day 35): -420.43 µg/mL | Numeric mean IgG ([5]; Sample Day 35): 940.13 µg/mL | Difference from Vehicle, mean IgG (vehicle minus treatment) ([5]; Sample Day 91): -495.86 µg/mL | Numeric mean IgG ([5]; Sample Day 91): 1192.87 µg/mL | Difference from Vehicle, mean IgM (vehicle minus treatment) ([6]; Sample Day 35): -35.64 µg/mL | Numeric mean IgM ([6]; Sample Day 35, atacicept 20 mg/kg s.c. 3/week, MMF 350 mg/kg/day oral): 141.34 µg/mL | Difference from Vehicle, mean IgM (vehicle minus treatment) ([6]; Sample Day 182): 20.18 µg/mL | Numeric mean IgM ([6]; Sample Day 182 (recovery period)): 53.77 µg/mL

Source: patent US8852591B2, “Combination of BLyS and/or APRIL inhibition and immunosuppressants for treatment of autoimmune disease” (Zymogenetics, Inc., priority 2007, dated 2014)
